# Data taken from PubChem BioAssay (NCI).
#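 Results reflect a 48-hour exposure of cells in 96-well plates to compound at five concentrations. GI50 is the concentration that inhibits growth by half. TGI: total growth inhibition.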
# Key:
# Experiment in all cases: growth of human tumour cells (NCI), 48 h
# SW-620 colon = test system: SW-620 colon
# IGROV1 ovarian = test system: IGROV1 ovarian
# CAKI-1 renal = test system: CAKI-1 renal
# NCI-H460 lung = test system: NCI-H460 lung
# HT29 colon = test system: HT29 colon
# SK-MEL-28 melanoma = test system: SK-MEL-28 melanoma
# RXF 393 renal = test system: RXF 393 renal
# COLO 205 colon = test system: COLO 205 colon
# MDA-MB-231 breast = test system: MDA-MB-231 breast
# MOLT-4 leukemia = test system: MOLT-4 leukemia
# NCI-H522 lung = test system: NCI-H522 lung
# SF-295 CNS = test system: SF-295 CNS
# PC-3 prostate = test system: PC-3 prostate
# BT-549 breast = test system: BT-549 breast
# NCI/ADR-RES ovarian = test system: NCI/ADR-RES ovarian
# MALME-3M melanoma = test system: MALME-3M melanoma
# SNB-75 CNS = test system: SNB-75 CNS
# T-47D breast = test system: T-47D breast
# SK-MEL-5 melanoma = test system: SK-MEL-5 melanoma
# SK-MEL-2 melanoma = test system: SK-MEL-2 melanoma
# NCI-H23 lung = test system: NCI-H23 lung
# SR leukemia = test system: SR leukemia
# SF-539 CNS = test system: SF-539 CNS
# HOP-62 NSCLC = test system: HOP-62 NSCLC
# TK-10 renal = test system: TK-10 renal
# OVCAR-3 ovarian = test system: OVCAR-3 ovarian
# OVCAR-8 ovarian = test system: OVCAR-8 ovarian
# SK-OV-3 ovarian = test system: SK-OV-3 ovarian
# LOX IMVI melanoma = test system: LOX IMVI melanoma
# OVCAR-4 ovarian = test system: OVCAR-4 ovarian
# OVCAR-5 ovarian = test system: OVCAR-5 ovarian
# MCF7 breast = test system: MCF7 breast
# NCI-H226 lung = test system: NCI-H226 lung
# KM12 colon = test system: KM12 colon
# HS 578T breast = test system: HS 578T breast
# SF-268 CNS = test system: SF-268 CNS
# HCT-116 colon = test system: HCT-116 colon
# UACC-62 melanoma = test system: UACC-62 melanoma
# DU-145 prostate = test system: DU-145 prostate
# HOP-92 NSCLC = test system: HOP-92 NSCLC
# SNB-19 CNS = test system: SNB-19 CNS
# RPMI-8226 leukemia = test system: RPMI-8226 leukemia
# HCC-2998 colon = test system: HCC-2998 colon
# 786-0 renal = test system: 786-0 renal
# HCT-15 colon = test system: HCT-15 colon
# M14 melanoma = test system: M14 melanoma
# EKVX NSCLC = test system: EKVX NSCLC
# SN12C renal = test system: SN12C renal
# UO-31 renal = test system: UO-31 renal
# A498 renal = test system: A498 renal
# CCRF-CEM leukemia = test system: CCRF-CEM leukemia
# ACHN renal = test system: ACHN renal
# MDA-MB-435 = test system: MDA-MB-435
# U251 CNS = test system: U251 CNS
# HL-60(TB) leukemia = test system: HL-60(TB) leukemia
# UACC-257 melanoma = test system: UACC-257 melanoma
smiles,measurement,setting,value
N#Cc1ccc2c(c1)C(=O)c1c-2n(CCCN=[N+]=[N-])c(=O)c2cc([N+](=O)[O-])ccc12,GI50,SW-620 colon,3.5 µM
same,TGI,SW-620 colon,> 50 µM
same,GI50,IGROV1 ovarian,12.4 µM
same,TGI,IGROV1 ovarian,> 50 µM
same,GI50,CAKI-1 renal,9.86 µM
same,TGI,CAKI-1 renal,> 50 µM
same,GI50,NCI-H460 lung,1.11 µM
same,TGI,NCI-H460 lung,> 50 µM
same,GI50,HT29 colon,32.1 µM
same,TGI,HT29 colon,> 50 µM
same,GI50,SK-MEL-28 melanoma,> 50 µM
same,TGI,SK-MEL-28 melanoma,> 50 µM
same,GI50,RXF 393 renal,> 50 µM
same,TGI,RXF 393 renal,> 50 µM
same,GI50,COLO 205 colon,> 50 µM
same,TGI,COLO 205 colon,> 50 µM
same,GI50,MDA-MB-231 breast,> 50 µM
same,TGI,MDA-MB-231 breast,> 50 µM
same,GI50,MOLT-4 leukemia,1.8 µM
same,TGI,MOLT-4 leukemia,9 µM
same,GI50,NCI-H522 lung,37.4 µM
same,TGI,NCI-H522 lung,> 50 µM
same,GI50,SF-295 CNS,8 µM
same,TGI,SF-295 CNS,> 50 µM
same,GI50,PC-3 prostate,> 50 µM
same,TGI,PC-3 prostate,> 50 µM
same,GI50,BT-549 breast,5.49 µM
same,TGI,BT-549 breast,> 50 µM
same,GI50,NCI/ADR-RES ovarian,> 50 µM
same,TGI,NCI/ADR-RES ovarian,> 50 µM
same,GI50,MALME-3M melanoma,> 50 µM
same,TGI,MALME-3M melanoma,> 50 µM
same,GI50,SNB-75 CNS,17.4 µM
same,TGI,SNB-75 CNS,> 50 µM
same,GI50,T-47D breast,8.63 µM
same,TGI,T-47D breast,> 50 µM
same,GI50,SK-MEL-5 melanoma,> 50 µM
same,TGI,SK-MEL-5 melanoma,> 50 µM
same,GI50,SK-MEL-2 melanoma,> 50 µM
same,TGI,SK-MEL-2 melanoma,> 50 µM
same,GI50,NCI-H23 lung,49.5 µM
same,TGI,NCI-H23 lung,> 50 µM
same,GI50,SR leukemia,0.373 µM
same,TGI,SR leukemia,4.82 µM
same,GI50,SF-539 CNS,> 50 µM
same,TGI,SF-539 CNS,> 50 µM
same,GI50,HOP-62 NSCLC,15 µM
same,TGI,HOP-62 NSCLC,> 50 µM
same,GI50,TK-10 renal,> 50 µM
same,TGI,TK-10 renal,> 50 µM
same,GI50,OVCAR-3 ovarian,> 50 µM
same,TGI,OVCAR-3 ovarian,> 50 µM
same,GI50,OVCAR-8 ovarian,> 50 µM
same,TGI,OVCAR-8 ovarian,> 50 µM
same,GI50,SK-OV-3 ovarian,> 50 µM
same,TGI,SK-OV-3 ovarian,> 50 µM
same,GI50,LOX IMVI melanoma,4.85 µM
same,TGI,LOX IMVI melanoma,> 50 µM
same,GI50,OVCAR-4 ovarian,> 50 µM
same,TGI,OVCAR-4 ovarian,> 50 µM
same,GI50,OVCAR-5 ovarian,> 50 µM
same,TGI,OVCAR-5 ovarian,> 50 µM
same,GI50,MCF7 breast,1.35 µM
same,TGI,MCF7 breast,> 50 µM
same,GI50,NCI-H226 lung,40 µM
same,TGI,NCI-H226 lung,> 50 µM
same,GI50,KM12 colon,> 50 µM
same,TGI,KM12 colon,> 50 µM
same,GI50,HS 578T breast,> 50 µM
same,TGI,HS 578T breast,> 50 µM
same,GI50,SF-268 CNS,5.03 µM
same,TGI,SF-268 CNS,> 50 µM
same,GI50,HCT-116 colon,3.91 µM
same,TGI,HCT-116 colon,> 50 µM
same,GI50,UACC-62 melanoma,3.6 µM
same,TGI,UACC-62 melanoma,> 50 µM
same,GI50,DU-145 prostate,7.16 µM
same,TGI,DU-145 prostate,> 50 µM
same,GI50,HOP-92 NSCLC,5.55 µM
same,TGI,HOP-92 NSCLC,40.1 µM
same,GI50,SNB-19 CNS,33 µM
same,TGI,SNB-19 CNS,> 50 µM
same,GI50,RPMI-8226 leukemia,21.3 µM
same,TGI,RPMI-8226 leukemia,> 50 µM
same,GI50,HCC-2998 colon,> 50 µM
same,TGI,HCC-2998 colon,> 50 µM
same,GI50,786-0 renal,23 µM
same,TGI,786-0 renal,> 50 µM
same,GI50,HCT-15 colon,> 50 µM
same,TGI,HCT-15 colon,> 50 µM
same,GI50,M14 melanoma,29.9 µM
same,TGI,M14 melanoma,> 50 µM
same,GI50,EKVX NSCLC,> 50 µM
same,TGI,EKVX NSCLC,> 50 µM
same,GI50,SN12C renal,47.2 µM
same,TGI,SN12C renal,> 50 µM
same,GI50,UO-31 renal,13.1 µM
same,TGI,UO-31 renal,> 50 µM
same,GI50,A498 renal,> 50 µM
same,TGI,A498 renal,> 50 µM
same,GI50,CCRF-CEM leukemia,1.82 µM
same,TGI,CCRF-CEM leukemia,> 50 µM
same,GI50,ACHN renal,5.28 µM
same,TGI,ACHN renal,> 50 µM
same,GI50,MDA-MB-435,> 50 µM
same,TGI,MDA-MB-435,> 50 µM
same,GI50,U251 CNS,4.49 µM
same,TGI,U251 CNS,> 50 µM
same,GI50,HL-60(TB) leukemia,> 50 µM
same,TGI,HL-60(TB) leukemia,> 50 µM
same,GI50,UACC-257 melanoma,> 50 µM
same,TGI,UACC-257 melanoma,> 50 µM
